Results taken from ChEMBL document CHEMBL1201862, “PubChem BioAssay data set” (2004).
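Following 48 hours of exposure in 96-well plates, responses at five concentrations were used to interpolate endpoints linearly. At the GI50, growth is halved.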 Active and inactive are the calls of the source. Cut-off read from the data, not from the text of the source: active = GI50 up to about 1.1 µM and inactive = higher.

Legend:
Assay in all cases: NCI anticancer screen, dose series, 48 h
A498 = test system: A498
TK-10 = test system: TK-10
A549 = test system: A549
IGROV-1 = test system: IGROV-1
HCT-116 = test system: HCT-116
CCRF-CEM = test system: CCRF-CEM
MDA-N = test system: MDA-N
SNB-75 = test system: SNB-75
HCT-15 = test system: HCT-15
MCF7 = test system: MCF7
CAKI-1 = test system: CAKI-1
KM12 = test system: KM12
M14 = test system: M14
SK-OV-3 = test system: SK-OV-3
NCI-H226 = test system: NCI-H226
OVCAR-4 = test system: OVCAR-4
SF-295 = test system: SF-295
NCI-H460 = test system: NCI-H460
NCI-H23 = test system: NCI-H23

| SMILES | GI50 (A498) | GI50 (TK-10) | GI50 (A549) | GI50 (IGROV-1) | GI50 (HCT-116) | GI50 (CCRF-CEM) | GI50 (MDA-N) | GI50 (SNB-75) | GI50 (HCT-15) [µM] | GI50 (MCF7) | GI50 (CAKI-1) | GI50 (KM12) | GI50 (M14) | GI50 (SK-OV-3) | GI50 (NCI-H226) | GI50 (OVCAR-4) | GI50 (SF-295) | GI50 (NCI-H460) | GI50 (NCI-H23) |
| --- | --- | --- | --- | --- | --- | --- | --- | --- | --- | --- | --- | --- | --- | --- | --- | --- | --- | --- | --- |
| COc1cc(/C=c2\sc3n(c2=O)C(c2ccc(Cl)cc2)C2=C(CCCC2C)N=3)cc(OC)c1OC (configuration not stated) | > 100 µM (inactive) | > 100 µM (inactive) | > 100 µM (inactive) | > 100 µM (inactive) | > 100 µM (inactive) | > 100 µM (inactive) | > 100 µM (inactive) | > 100 µM (inactive) | > 100 | > 100 µM (inactive) | > 100 µM (inactive) | > 100 µM (inactive) | > 100 µM (inactive) | > 100 µM (inactive) |  |  |  |  |  |
| O/N=C1/CC2(N3CCOCC3)C3CC/C(=N\O)C2CC1(Cc1ccccc1)C3 (configuration not stated) | > 100 µM (inactive) |  | > 100 µM (inactive) | > 100 µM (inactive) | 44.5 µM (inactive) | > 100 µM (inactive) | > 100 µM (inactive) | 36.1 µM (inactive) | > 100 | 66.4 µM (inactive) | > 100 µM (inactive) | > 100 µM (inactive) | > 100 µM (inactive) | > 100 µM (inactive) | > 100 µM (inactive) | > 100 µM (inactive) | > 100 µM (inactive) | > 100 µM (inactive) | > 100 µM (inactive) |
| O=C(O)CSc1ccc([N+](=O)[O-])cc1[N+](=O)[O-] | > 100 µM (inactive) | > 100 µM (inactive) | > 100 µM (inactive) | > 100 µM (inactive) | > 100 µM (inactive) |  | > 100 µM (inactive) | > 100 µM (inactive) | > 100 | > 100 µM (inactive) | > 100 µM (inactive) | > 100 µM (inactive) | > 100 µM (inactive) | > 100 µM (inactive) |  | > 100 µM (inactive) | > 100 µM (inactive) | > 100 µM (inactive) | > 100 µM (inactive) |
| Nc1ncc(Cc2ccc3c(c2)OCO3)c(N)n1 | > 100 µM (inactive) | > 100 µM (inactive) | > 100 µM (inactive) | > 100 µM (inactive) | > 100 µM (inactive) | > 100 µM (inactive) | > 100 µM (inactive) |  | > 100 | > 100 µM (inactive) | > 100 µM (inactive) | > 100 µM (inactive) | > 100 µM (inactive) | > 100 µM (inactive) | > 100 µM (inactive) | > 100 µM (inactive) | > 100 µM (inactive) | > 100 µM (inactive) | > 100 µM (inactive) |
| C[C@]1(O)CC[C@H]2[C@@H]3CCc4cc(O)ccc4[C@H]3CC[C@@]21C | 0.456 µM (active) | 0.826 µM (active) | 3.94 µM (inactive) | 0.735 µM (active) |  | 2.37 µM (inactive) | 0.186 µM (active) | > 100 µM (inactive) | 1.15 | 0.665 µM (active) | 3.62 µM (inactive) | 0.308 µM (active) | 1.18 µM (inactive) | 89.5 µM (inactive) |  | > 100 µM (inactive) | 1.48 µM (inactive) | 1.36 µM (inactive) | 3.03 µM (inactive) |
| CCc1c(Cc2cc(C)cc(C)c2)n2c(nc1=O)SCC2CBr (configuration not stated) | 28.7 µM (inactive) | 34 µM (inactive) | > 50 µM (inactive) | 24.2 µM (inactive) | > 50 µM (inactive) | 12.6 µM (inactive) | > 50 µM (inactive) | 15.5 µM (inactive) | > 50 | 29.4 µM (inactive) | > 50 µM (inactive) | > 50 µM (inactive) | > 50 µM (inactive) |  | > 50 µM (inactive) | 46.1 µM (inactive) |  | > 50 µM (inactive) | > 50 µM (inactive) |
| CCOc1ccc(NC(=O)/C(=N\NC(C)(C)C)C2C(=O)Nc3ccccc3[S+]2[O-])cc1 (configuration not stated) | > 100 µM (inactive) | > 100 µM (inactive) | > 100 µM (inactive) | > 100 µM (inactive) | > 100 µM (inactive) | 94.6 µM (inactive) | > 100 µM (inactive) | > 100 µM (inactive) | > 100 | > 100 µM (inactive) |  | > 100 µM (inactive) | > 100 µM (inactive) | > 100 µM (inactive) | > 100 µM (inactive) | > 100 µM (inactive) | > 100 µM (inactive) | > 100 µM (inactive) | > 100 µM (inactive) |
| O=c1oc2cc(O)ccc2cc1-c1nc2ccccc2o1 | 29.2 µM (inactive) | 37 µM (inactive) | 29.5 µM (inactive) | 29.1 µM (inactive) | 41.6 µM (inactive) | 8.87 µM (inactive) | 40.8 µM (inactive) | 63.8 µM (inactive) | 34.4 | 32.8 µM (inactive) | 44 µM (inactive) | 25.8 µM (inactive) | 36.3 µM (inactive) |  | 61.5 µM (inactive) | 29.8 µM (inactive) | 44.9 µM (inactive) | 30.5 µM (inactive) | 32.6 µM (inactive) |
